Measurements from patent publication US12370263B2, “Cyclic dinucleotide derivative based antibody-drug conjugates” (DAIICHI SANKYO COMPANY, LIMITED, priority 2018, dated 2025).

Target: T1, HisAviTEV-hSTING (139-342) human wild-type protein (Homo sapiens, UniProt Q86WV6, H232R)
T1 construct: made in house; host or cells: E. coli Rosetta 2 (DE3), co-expressed with BirA (1-321)
Assay: Protein thermal shift assay, STING C-terminal binding domain protein
Details: test compound final concentration 0.5 mM

T1 sequence (Q86WV6 with tags, fused parts or gaps H232R): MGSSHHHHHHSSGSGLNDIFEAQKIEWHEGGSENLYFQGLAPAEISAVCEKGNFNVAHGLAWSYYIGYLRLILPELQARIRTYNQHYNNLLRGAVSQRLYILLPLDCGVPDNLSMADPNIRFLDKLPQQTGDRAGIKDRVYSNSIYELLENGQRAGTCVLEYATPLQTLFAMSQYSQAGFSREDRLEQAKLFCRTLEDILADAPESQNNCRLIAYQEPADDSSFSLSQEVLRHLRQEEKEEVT

| ΔTm Hu-WT [°C] | SMILES |
| --- | --- |
| 12.3 | O=C(CO)NCCn1cnc2c(ncn2[C@@H]2O[C@@H]3COP(=O)(S)O[C@H]4[C@@H](F)[C@H](n5cc6c7c(ncnc75)SCCC6)O[C@@H]4COP(=O)(S)O[C@@H]2[C@@H]3O)c1=O (single isomer, unassigned) [50b] |

Target: Human STING (Homo sapiens, UniProt Q86WV6, G230A/H232R/R293Q/R71H)
Assay: Reporter gene assay, human STING agonist activity, THP1-Dual cells (HAQ-mutated), IRF pathway
Details: THP1-Dual cells IRF EC50, THP1-Dual cells (HAQ-mutated), 24 hours; 100% = maximum count with ML-RR-CDA·2Na+
Protocol: Human STING agonist activity was evaluated by using THP1-Dual™ cells (HAQ-mutated) (InvivoGen, CA, US), with which the activation of the pathway of interferon regulatory factor-3 (IRF3), which is present in the downstream of the STING pathway, can be confirmed.
Assay was performed as follows. First, a test compound diluted with PBS was aliquoted into a transparent 96-well plate (Corning Incorporated, NY, US) at 20 μL/well. Subsequently, reporter cells suspended in assay buffer (an RPMI1640 medium or DMEM medium containing 10% bovine serum albumin) were added at 180 μL/well (1×10^5 cells/well) to initiate stimulation. After the cells were cultured in an environment at 37° C. and 5% CO2 for 24 hours, the resultant was centrifuged to collect the supernatant. To a white 384-well plate, 6 μL of the supernatant collected was added, and 15 μL of QUANTI-Luc (InvivoGen) solution was added thereto. After the resultant was well mixed together, emission was measured by using a plate reader (PerkinElmer, Inc., MA, US).

Chain of Human STING (Q86WV6 whole entry R71H/G230A/H232R/R293Q): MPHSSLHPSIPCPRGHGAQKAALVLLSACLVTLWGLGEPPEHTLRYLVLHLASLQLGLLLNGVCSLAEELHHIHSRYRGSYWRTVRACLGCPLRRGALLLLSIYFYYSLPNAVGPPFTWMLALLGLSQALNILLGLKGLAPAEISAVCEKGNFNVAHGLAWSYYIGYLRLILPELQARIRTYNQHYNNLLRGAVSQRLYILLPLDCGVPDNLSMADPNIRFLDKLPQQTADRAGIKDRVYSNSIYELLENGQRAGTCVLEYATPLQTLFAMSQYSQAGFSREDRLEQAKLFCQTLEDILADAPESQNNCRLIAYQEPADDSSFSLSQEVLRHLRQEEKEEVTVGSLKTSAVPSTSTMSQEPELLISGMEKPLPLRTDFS

| EC50 [nM] | SMILES |
| --- | --- |
| 55 | Nc1ncnc2c1ncn2[C@@H]1O[C@@H]2COP(=O)(S)O[C@H]3[C@@H](O)[C@H](n4cc5c6c(ncnc64)SCCC5)O[C@@H]3COP(=O)(S)O[C@@H]1[C@@H]2O (single isomer, unassigned) [23b] |
| 1400 | O=c1c2ncn([C@@H]3O[C@@H]4COP(=O)(S)O[C@H]5[C@@H](O)[C@H](n6cc7c8c(ncnc86)NCCC7)O[C@@H]5COP(=O)(S)O[C@@H]3[C@@H]4O)c2ncn1CCCO (single isomer, unassigned) [26a] |
| 450 | O=c1c2ncn([C@@H]3O[C@@H]4COP(=O)(S)O[C@H]5[C@@H](O)[C@H](n6cc7c8c(ncnc86)NCCC7)O[C@@H]5COP(=O)(S)O[C@@H]3C4)c2ncn1CCO (single isomer, unassigned) [38a] |
| 2100 | O=c1c2ncn([C@@H]3O[C@@H]4COP(=O)(S)O[C@H]5[C@@H](O)[C@H](n6cc7c8c(ncnc86)NCCC7)O[C@@H]5COP(=O)(S)O[C@@H]3[C@@H]4O)c2ncn1CCO (single isomer, unassigned) [6b] |
| 400 | Nc1ncnc2c1ncn2[C@@H]1O[C@@H]2COP(=O)(S)O[C@H]3[C@@H](O)[C@H](n4cc5c6c(ncnc64)OCCC5)O[C@@H]3COP(=O)(S)O[C@@H]1[C@@H]2O (single isomer, unassigned) [20b] |
| 300 | Nc1ncnc2c1ncn2[C@@H]1O[C@@H]2COP(=O)(S)O[C@H]3[C@@H](O)[C@H](n4cc5c6c(ncnc64)NCCC5)O[C@@H]3COP(=O)(S)O[C@@H]1[C@@H]2O (single isomer, unassigned) [1b] |
| 580 | Nc1ncnc2c1ncn2[C@@H]1O[C@@H]2COP(=O)(S)O[C@H]3[C@@H](O)[C@H](n4cc5c6c(ncnc64)NCCC5)O[C@@H]3COP(=O)(S)O[C@@H]1[C@@H]2O (stereo partly drawn) [47a, Disodium (2S,5R,7R,8R,12aR,14R,15R,15aS,16R)-7-(6-amino-9H-purin-9-yl)-15,16-dihydroxy-2-oxo-10-sulfanylidene-14-(6,7,8,9-tetrahydro-2H-2,3,5,6-tetraazabenzo[cd]azulen-2-yl)octahydro-2H,10H,12H-5,8-methano-2λ^5,10λ^5-furo[3,2-1][1,3,6,9,11,2,10]pentaoxadiphosphacyclotetradecine-2,10-bis(thiolate)] |
| 3400 | NCCn1cnc2c(ncn2[C@@H]2O[C@@H]3COP(=O)(S)O[C@H]4[C@@H](O)[C@H](n5cc6c7c(ncnc75)NCCC6)O[C@@H]4COP(=O)(S)O[C@@H]2[C@@H]3F)c1=O (single isomer, unassigned) [40a] |
| 1100 | O=C(CO)NCCn1cnc2c(ncn2[C@@H]2O[C@@H]3COP(=O)(S)O[C@H]4[C@@H](O)[C@H](n5cc6c7c(ncnc75)NCCC6)O[C@@H]4COP(=O)(S)O[C@@H]2[C@@H]3F)c1=O (single isomer, unassigned) [41a] |
| 3200 | NCCn1cnc2c(ncn2[C@@H]2O[C@@H]3COP(=O)(S)O[C@H]4[C@@H](O)[C@H](n5cc6c7c(ncnc75)NCCC6)O[C@@H]4COP(=O)(S)O[C@@H]2[C@@H]3F)c1=O (single isomer, unassigned) [40b] |
| 4300 | C[C@H]1CCc2cn([C@@H]3O[C@@H]4COP(=O)(S)O[C@@H]5[C@H](O)[C@@H](COP(=O)(S)O[C@H]4[C@H]3O)O[C@H]5n3cnc4c(N)ncnc43)c3ncnc(c23)O1 (single isomer, unassigned) [22b] |
| 39 | O=c1c2ncn([C@@H]3O[C@@H]4COP(=O)(S)O[C@H]5[C@@H](F)[C@H](n6cc7c8c(ncnc86)SCCC7)O[C@@H]5COP(=O)(S)O[C@@H]3[C@@H]4O)c2ncn1CCO (single isomer, unassigned) [48b] |
| 200 | O=C(CO)NCCn1cnc2c(ncn2[C@@H]2O[C@@H]3COP(=O)(S)O[C@H]4[C@@H](F)[C@H](n5cc6c7c(ncnc75)SCCC6)O[C@@H]4COP(=O)(S)O[C@@H]2[C@@H]3O)c1=O (single isomer, unassigned) [50b] |
| 350 | O=c1c2ncn([C@@H]3O[C@@H]4COP(=O)(S)O[C@H]5[C@@H](F)[C@H](n6cc7c8c(ncnc86)NCCC7)O[C@@H]5COP(=O)(S)O[C@@H]3[C@@H]4F)c2ncn1CCO (single isomer, unassigned) [44b] |
| 2400 | NCCn1cnc2c(ncn2[C@@H]2O[C@@H]3COP(=O)(S)O[C@H]4[C@@H](O)[C@H](n5cc6c7c(ncnc75)NCCC6)O[C@@H]4COP(=O)(S)O[C@@H]2[C@@H]3O)c1=O (single isomer, unassigned) [5a] |
| 700 | Nc1ncnc2c1ncn2[C@@H]1O[C@@H]2COP(=O)(S)O[C@H]3[C@@H](O)[C@H](n4cc5c6c(ncnc64)OCCC5)O[C@@H]3COP(=O)(S)O[C@@H]1[C@@H]2O (single isomer, unassigned) [21b] |

| EC50 [nM] | SMILES |
| --- | --- |
| 410 | O=c1c2ncn([C@@H]3O[C@@H]4COP(=O)(S)O[C@H]5[C@@H](O)[C@H](n6cc7c8c(ncnc86)NCCC7)O[C@@H]5COP(=O)(S)O[C@@H]3[C@@H]4F)c2ncn1CCO (single isomer, unassigned) [39b] |
| 1200 | O=c1c2ncn([C@@H]3O[C@@H]4COP(=O)(S)O[C@H]5C[C@H](n6cc7c8c(ncnc86)NCCC7)O[C@@H]5COP(=O)(S)O[C@@H]3[C@@H]4O)c2ncn1CCO (single isomer, unassigned) [32a] |
| 3600 | O=C(CO)NCCn1cnc2c(ncn2[C@@H]2O[C@@H]3COP(=O)(S)O[C@H]4[C@@H](O)[C@H](n5cc6c7c(ncnc75)NCCC6)O[C@@H]4COP(=O)(S)O[C@@H]2[C@@H]3F)c1=O (single isomer, unassigned) [41b] |
| 1800 | Nc1nc(CO)nc2c1ncn2[C@@H]1O[C@@H]2COP(=O)(S)O[C@H]3[C@@H](O)[C@H](n4cc5c6c(ncnc64)NCCC5)O[C@@H]3COP(=O)(S)O[C@@H]1[C@@H]2O (single isomer, unassigned) [12b] |
| 5700 | Nc1nc(NCCO)nc2c1ncn2[C@@H]1O[C@@H]2COP(=O)(S)O[C@H]3[C@@H](O)[C@H](n4cc5c6c(ncnc64)NCCC5)O[C@@H]3COP(=O)(S)O[C@@H]1[C@@H]2O (single isomer, unassigned) [9a] |
| 550 | O=c1c2ncn([C@@H]3O[C@@H]4COP(=O)(S)O[C@H]5[C@@H](F)[C@H](n6cc7c8c(ncnc86)NCCC7)O[C@@H]5COP(=O)(S)O[C@@H]3[C@@H]4O)c2ncn1CCO (single isomer, unassigned) [34b] |
| 1600 | O=c1c2ncn([C@@H]3O[C@@H]4COP(=O)(S)O[C@H]5[C@@H](O)[C@H](n6cc7c8c(ncnc86)NCCC7)O[C@@H]5COP(=O)(S)O[C@@H]3C4)c2ncn1CCO (single isomer, unassigned) [38b] |
| 6300 | CC(C)(N)CNc1nc(N)c2ncn([C@@H]3O[C@@H]4COP(=O)(S)O[C@H]5[C@@H](O)[C@H](n6cc7c8c(ncnc86)NCCC7)O[C@@H]5COP(=O)(S)O[C@@H]3[C@@H]4O)c2n1 (single isomer, unassigned) [10a] |
| 4000 | NCc1nc(N)c2ncn([C@@H]3O[C@@H]4COP(=O)(S)O[C@H]5[C@@H](O)[C@H](n6cc7c8c(ncnc86)NCCC7)O[C@@H]5COP(=O)(S)O[C@@H]3[C@@H]4O)c2n1 (single isomer, unassigned) [11a] |
| 6400 | O=c1c2ncn([C@@H]3O[C@@H]4COP(=O)(S)O[C@H]5C[C@H](n6cc7c8c(ncnc86)NCCC7)O[C@@H]5COP(=O)(S)O[C@@H]3[C@@H]4O)c2ncn1CCO (single isomer, unassigned) [32b] |
| 4700 | Nc1ncnc2c1ncn2[C@@H]1O[C@@H]2COP(=O)(S)O[C@H]3[C@@H](O)[C@H](n4cc5c6c(ncnc64)NCCC5)O[C@@H]3COP(=O)(S)O[C@@H]1[C@@H]2O (single isomer, unassigned) [2a] |
| 320 | NCCNc1nc(N)c2ncn([C@@H]3O[C@@H]4COP(=O)(S)O[C@H]5[C@@H](F)[C@H](n6cc7c8c(ncnc86)SCCC7)O[C@@H]5COP(=O)(S)O[C@@H]3[C@@H]4F)c2n1 (single isomer, unassigned) [51a] |
| 460 | O=c1c2ncn([C@@H]3O[C@@H]4COP(=O)(O)O[C@H]5[C@@H](F)[C@H](n6cc7c8c(ncnc86)NCCC7)O[C@@H]5COP(=O)(S)O[C@@H]3[C@@H]4O)c2ncn1CCO (single isomer, unassigned) [52b] |
| 180 | O=c1c2ncn([C@@H]3O[C@@H]4COP(=O)(S)O[C@H]5[C@H](F)[C@H](n6cc7c8c(ncnc86)NCCC7)O[C@@H]5COP(=O)(S)O[C@@H]3[C@@H]4O)c2ncn1CCO (single isomer, unassigned) [33a] |
| 330 | NCCn1cnc2c(ncn2[C@@H]2O[C@@H]3COP(=O)(S)O[C@H]4[C@@H](F)[C@H](n5cc6c7c(ncnc75)SCCC6)O[C@@H]4COP(=O)(S)O[C@@H]2[C@@H]3O)c1=O (single isomer, unassigned) [49a] |

Same assay, conditions: read-out: THP1-Dual cells IRF EC50; THP1-Dual cells (HAQ-mutated), 24 hours; 100% = maximum count with ML-RR-CDA·2Na+

| EC50 [nM] | SMILES |
| --- | --- |
| 3900 | Nc1ncnc2c1ncn2[C@@H]1O[C@@H]2COP(=O)(S)O[C@@H]3[C@@H](COP(=O)(S)O[C@@H]1[C@@H]2O)C[C@@H](n1cc2c4c(ncnc41)NCCC2)[C@@H]3O (single isomer, unassigned) [46a] |
| 870 | Nc1ncnc2c1ncn2[C@@H]1O[C@@H]2COP(=O)(S)O[C@@H]3[C@@H](COP(=O)(S)O[C@@H]1[C@@H]2O)C[C@@H](n1cc2c4c(ncnc41)NCCC2)[C@@H]3O (single isomer, unassigned) [46b] |
